Paper PMC11459923, “Identification of novel and potent inhibitors of SARS-CoV-2 main protease from DNA-encoded chemical libraries” (Antimicrobial Agents and Chemotherapy, 2024)
Read-outs that look alike come from different tables or passages of the source.

Tests used:
[1] = test system: M^pro; settings: read-out: IC50 M^pro; cited from earlier work
[2] = test system: SARS-CoV-2; test: microbe, parasite or virus in culture; assay type: cell-based
[3] = in vitro; settings: human, Caco-2
[4] = target: T1, SARS-CoV-2 M^pro (Severe acute respiratory syndrome coronavirus 2, UniProt P0DTD1); test: In vitro FRET enzymatic assay (screening at 1 µM and SAR IC50); assay type: biochemical; settings: read-out: IC50 ± SEM
[5] = target: T1, SARS-CoV-2 M^pro; test: Mpro protease activity assay (FRET, used for Table 1); assay type: biochemical
[6] = target: T2, human cathepsin S (Homo sapiens, UniProt P25774); test: Counter assay screening, SensoLyte 440 cathepsin S kit; assay type: biochemical; settings: for Inhibitory activity against human Cathepsin S: concentrations 50 to 0.00085 µM; for IC50: tested up to 50 µM
T2 construct: purchased Anaspec, Inc. SensoLyte 440 cathepsin S Assay Kit (catalogue number not given)
T2 sequence (P25774 115-331): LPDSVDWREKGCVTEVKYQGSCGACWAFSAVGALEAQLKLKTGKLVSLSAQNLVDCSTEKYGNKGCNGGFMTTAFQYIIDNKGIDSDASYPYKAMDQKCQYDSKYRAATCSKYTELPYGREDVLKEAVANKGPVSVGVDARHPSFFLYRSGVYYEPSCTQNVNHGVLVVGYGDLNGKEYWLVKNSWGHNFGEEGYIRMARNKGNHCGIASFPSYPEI

[7] = target: avi-tagged SARS-CoV-2 M^pro (Severe acute respiratory syndrome coronavirus 2, UniProt P0DTD1); assay type: binding
[8] = in vitro; settings: human, microsomes
[9] = mouse; for Metabolic stability: microsomes
[10] = human; for Metabolic stability: microsomes
[11] = in vitro; settings: mouse, microsomes
[12] = 75 nM M^pro, 10 µM substrate, 11-point series from 50 µM

SMILES	IC50 [5, 12] [nM]	IC50 M^pro ([5]; off-DNA synthesized DECL hits)	Inhibitory activity against human Cathepsin S [6]	IC50 [6] [nM]	Enrichment score M^pro [7]	Enrichment score M^pro +GC376 [7]	other results
CC(C)C[C@H](NC(=O)OCc1ccccc1)C(=O)N[C@@H](CC1CCNC1=O)C(O)S(=O)(=O)O (stereo partly drawn) [GC376]							IC50 [1]: 150 nM
N#Cc1cc(C(=O)N[C@H](CC2CCC2)C(=O)N[C@H](CC(=O)N[C@H](Cc2ccncc2)C(=O)O)Cc2c[nH]c3ccccc23)ccn1 [MP1]							Protective effect on infected Calu-3 (CPE) [2]: no protective effect; EC50 ([2]; Severe acute respiratory syndrome coronavirus 2, Calu-3, 48 h, read-out: EC50 inhibition of CPE development): 2300 nM; Papp A→B [3]: 5.4 ×10⁻⁶ cm/s; Papp B→A [3]: 2.5 ×10⁻⁶ cm/s
CCCC[C@@H](NC(=O)c1ccnc(C#N)c1)C(=O)N[C@H](CC(=O)N[C@H](Cc1ccncc1)C(=O)O)Cc1c[nH]c2ccccc12 [MP9]							IC50 [4]: 139 ± 49 nM
CCCCC(NC(=O)CC(Cc1c[nH]c2ccccc12)NC(=O)C(Cc1ccccc1)NC(=O)c1ccnc(C#N)c1)C(=O)NC (stereo not drawn) [SLL07]	140	low nanomolar range	no inhibitory activity	> 50000	135,654	0	
CNC(=O)[C@@H](CSCNC(C)=O)NC(=O)c1ccc2cncc(-c3ccc(Oc4ccccc4)nc3)c2n1 [SLL08]	> 50000		no inhibitory activity	> 50000	11,444	676	
CNC(=O)C(Cc1ccncc1)NC(=O)CC(Cc1c[nH]c2ccccc12)NC(=O)C(CC1CCC1)NC(=O)c1ccnc(C#N)c1 (stereo not drawn) [SLL11]	30	low nanomolar range	no inhibitory activity	> 50000	515,485	206,982	IC50 ([5]; off-DNA synthesized DECL hits): ≤ 30 nM; microsomal CLint [8]: 139 µL/min/mg; In vitro half time [9]: 9 min; Metabolic stability [9]: low metabolic stability; In vitro half time [10]: 10 min; Metabolic stability [10]: low metabolic stability; microsomal CLint [11]: 154 µL/min/mg
CCCC[C@@H](NC(=O)c1ccnc(C#N)c1)C(=O)N[C@H](CC(=O)N[C@H](Cc1ccncc1)C(=O)NC)Cc1c[nH]c2ccccc12 [SLL12]	53	low nanomolar range	no inhibitory activity	> 50000	488,354	0	microsomal CLint [8]: 131 µL/min/mg; In vitro half time [9]: 8 min; Metabolic stability [9]: low metabolic stability; In vitro half time [10]: 11 min; Metabolic stability [10]: low metabolic stability; microsomal CLint [11]: 170 µL/min/mg
